Assay results from ChEMBL document CHEMBL6096671, “Discovery of VU6024578/BI02982816: An mGlu1 Positive Allosteric Modulator with Efficacy in Preclinical Antipsychotic and Cognition Models” (J Med Chem, 2024).
Activity calls are given as the source filed them. The rule behind the calls is not given here.

Assays:
[1] = Unbound initial plasma concentration in male dog; assay type: ADME, Canis lupus familiaris
[2] = molecular target: T1, Metabotropic glutamate receptor 1 (Homo sapiens, UniProt Q13255); experiment: Positive allosteric modulation of human mGlu1
[3] = Initial plasma concentration in male dog; assay type: ADME, Canis lupus familiaris; details: read-out: C0
[4] = Toxicity in male Sprague-Dawley rat assessed as catalepsy at 1.5 mg/kg, ip measured after 100 mins; assay type: organism-based; details: in vivo, 1.667 h
[5] = molecular target: Metabotropic glutamate receptor 3 (Rattus norvegicus, UniProt P31422); experiment: Positive allosteric modulation of rat mGlu3 receptor
[6] = test system: Mus musculus; experiment: Reversal of MK-801 induced deficits in sc dosed male C57BL/6JRj mouse model assessed as 40 Hz ASSR in prefrontal cortex measured after 15 mins; assay type: functional, organism-based; details: dose 0.8-3 mg/kg
[7] = Toxicity in male Wistar rat assessed as reduction in rapid eye movement sleep at 1 to 10 mg/kg, po measured at 30 to 120 mins post treatment by EEG analysis; assay type: organism-based; details: in vivo, dose lower 1 mg/kg, time lower 30 min, dose upper 10 mg/kg, time upper 120 min
[8] = test system: Rattus norvegicus; experiment: Antipsychotic activity in male Sprague-Dawley rat assessed as reduction in amphetamine-induced locomotor activity by measuring reversal of total ambulation at 10 mg/kg, po pretreated for 5 hrs followed by amphetamine addition and measured at 95 to 180 mins relative to control; assay type: functional; parameters: scale not given: the % may be the effect or the level left
[9] = Toxicity in male Wistar rat assessed as reduction in non rapid eye movement sleep at 1 to 10 mg/kg, po measured at 30 to 120 mins post treatment by EEG analysis; assay type: organism-based; details: in vivo, dose lower 1 mg/kg, time lower 30 min, dose upper 10 mg/kg, time upper 120 min
[10] = molecular target: Metabotropic glutamate receptor 4 (Rattus norvegicus, UniProt P31423); experiment: Positive allosteric modulation of rat mGlu4 receptor
Sequence of Metabotropic glutamate receptor 4 (Rattus norvegicus, UniProt P31423) (P31423 whole entry): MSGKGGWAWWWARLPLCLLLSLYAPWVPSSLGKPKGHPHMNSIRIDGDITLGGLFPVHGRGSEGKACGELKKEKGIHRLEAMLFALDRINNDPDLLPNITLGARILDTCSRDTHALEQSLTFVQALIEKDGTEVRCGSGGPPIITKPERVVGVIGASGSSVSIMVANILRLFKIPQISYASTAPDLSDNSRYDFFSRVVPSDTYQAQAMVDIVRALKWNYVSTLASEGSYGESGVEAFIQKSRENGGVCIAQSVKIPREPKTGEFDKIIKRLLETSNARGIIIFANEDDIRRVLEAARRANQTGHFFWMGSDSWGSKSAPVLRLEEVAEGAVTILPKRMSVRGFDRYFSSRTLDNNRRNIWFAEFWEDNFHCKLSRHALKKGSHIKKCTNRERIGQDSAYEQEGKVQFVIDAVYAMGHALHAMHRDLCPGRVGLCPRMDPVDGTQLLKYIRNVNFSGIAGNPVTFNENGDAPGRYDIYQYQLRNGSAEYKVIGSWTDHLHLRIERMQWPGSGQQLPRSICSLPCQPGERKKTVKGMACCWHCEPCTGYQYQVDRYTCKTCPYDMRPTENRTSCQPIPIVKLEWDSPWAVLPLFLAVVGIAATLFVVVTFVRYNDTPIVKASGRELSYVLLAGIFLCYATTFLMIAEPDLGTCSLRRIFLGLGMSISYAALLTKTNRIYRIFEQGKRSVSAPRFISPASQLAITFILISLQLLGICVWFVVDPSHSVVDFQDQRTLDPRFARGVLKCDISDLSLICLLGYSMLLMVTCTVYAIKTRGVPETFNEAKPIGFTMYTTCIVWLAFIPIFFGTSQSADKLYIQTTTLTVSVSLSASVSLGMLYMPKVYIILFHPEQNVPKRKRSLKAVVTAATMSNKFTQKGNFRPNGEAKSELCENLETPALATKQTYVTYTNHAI

[11] = test system: Mus musculus; experiment: Antipsychotic efficacy against amphetamine-induced hyperlocomotion in male C57Bl/6 mouse assessed as reversal of hyperlocomotive state administered ip and pretreated with compound followed by amphetamine addition for 60 mins and measured after 90 mins; assay type: functional, organism-based; details: dose 3-30 mg/kg
[12] = Unbound brain concentration in male Sprague-Dawley rat at 3 mg/kg, po in 10% tween 80 formulation measured at 15 to 420 mins by LC-MS/MS analysis; assay type: ADME, organism-based; details: in vivo, time 15-420 min
[13] = molecular target: Metabotropic glutamate receptor 8 (Homo sapiens, UniProt O00222); experiment: Positive allosteric modulation of human mGlu8 receptor
[14] = Toxicity in male Wistar rat assessed as reduction in beta power at 10 mg/kg, po measured at 60 to 240 mins post treatment by EEG analysis; assay type: organism-based; details: in vivo, time 60-240 min
[15] = Glutathione reactivity in rat liver microsomes incubated for 1 hr in presence of glutathione; assay type: ADME, Microsome
[16] = molecular target: Metabotropic glutamate receptor 8 (Rattus norvegicus, UniProt P70579); experiment: Positive allosteric modulation of rat mGlu8 receptor
[17] = molecular target: T1, Metabotropic glutamate receptor 1; experiment: Positive allosteric modulation of mGlu1 receptor (unknown origin) in presence of glutamate at EC20 concentration; details: filed as positive allosteric modulator
Target sequence in this assay (Q13255 19-1194 limits assumed): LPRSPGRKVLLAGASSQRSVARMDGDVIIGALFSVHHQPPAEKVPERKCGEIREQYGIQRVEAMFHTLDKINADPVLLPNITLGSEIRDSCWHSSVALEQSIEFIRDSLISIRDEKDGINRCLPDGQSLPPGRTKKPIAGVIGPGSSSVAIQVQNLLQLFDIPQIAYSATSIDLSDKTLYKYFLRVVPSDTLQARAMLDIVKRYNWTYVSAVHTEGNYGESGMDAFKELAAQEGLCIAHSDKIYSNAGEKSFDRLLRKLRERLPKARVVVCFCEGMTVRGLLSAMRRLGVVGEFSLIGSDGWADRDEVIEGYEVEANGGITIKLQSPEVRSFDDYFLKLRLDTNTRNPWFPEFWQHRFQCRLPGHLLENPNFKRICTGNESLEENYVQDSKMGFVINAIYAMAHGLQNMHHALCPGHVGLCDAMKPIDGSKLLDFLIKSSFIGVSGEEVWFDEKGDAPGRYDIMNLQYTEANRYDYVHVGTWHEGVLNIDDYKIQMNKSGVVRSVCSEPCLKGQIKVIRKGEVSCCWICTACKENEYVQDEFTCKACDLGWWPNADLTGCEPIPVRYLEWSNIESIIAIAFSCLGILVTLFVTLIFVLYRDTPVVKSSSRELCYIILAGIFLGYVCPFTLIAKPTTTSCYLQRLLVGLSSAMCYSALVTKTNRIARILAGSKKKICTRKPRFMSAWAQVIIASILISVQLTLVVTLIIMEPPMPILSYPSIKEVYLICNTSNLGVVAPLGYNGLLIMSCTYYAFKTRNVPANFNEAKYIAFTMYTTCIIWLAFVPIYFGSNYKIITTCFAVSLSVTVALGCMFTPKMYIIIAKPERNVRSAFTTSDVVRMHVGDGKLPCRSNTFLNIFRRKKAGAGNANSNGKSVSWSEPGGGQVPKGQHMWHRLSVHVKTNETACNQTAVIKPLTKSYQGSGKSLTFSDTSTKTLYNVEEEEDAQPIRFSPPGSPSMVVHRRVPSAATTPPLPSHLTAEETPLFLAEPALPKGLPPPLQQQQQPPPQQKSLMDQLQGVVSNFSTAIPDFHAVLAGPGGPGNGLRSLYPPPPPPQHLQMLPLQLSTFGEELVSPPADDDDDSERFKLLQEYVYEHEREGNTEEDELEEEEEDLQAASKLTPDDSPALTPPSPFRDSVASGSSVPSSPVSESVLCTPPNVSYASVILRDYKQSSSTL

[18] = Unbound brain concentration in amphetamine-induced hyperlocomotion male Sprague-Dawley rat model at 3 mg/kg, po measured after 2.5 hrs; assay type: ADME, organism-based; details: in vivo
[19] = test system: Rattus norvegicus; experiment: Antipsychotic efficacy against MK-801-induced po dosed male Sprague-Dawley rat assessed as reversal of MK-801 disruption by measuring recognition index measured after 30 mins by novel object recognition test; assay type: functional, organism-based; details: dose 1-10 mg/kg
[20] = test system: Rattus norvegicus; experiment: Antipsychotic activity in male Sprague-Dawley rat assessed as reduction in amphetamine-induced locomotor activity by measuring reversal of total ambulation at 3 mg/kg, po pretreated for 1 hrs followed by amphetamine addition and measured at 95 to 180 mins relative to control; assay type: functional; parameters: scale not given: the % may be the effect or the level left
[21] = Stability of compound at pH 2.2; assay type: physicochemical; details: buffer
[22] = molecular target: Metabotropic glutamate receptor 4 (Homo sapiens, UniProt Q14833); experiment: Positive allosteric modulation of human mGlu4 receptor
[23] = Unbound brain concentration in amphetamine-induced hyperlocomotion male Sprague-Dawley rat model at 10 mg/kg, po; assay type: ADME, organism-based; details: in vivo
[24] = test system: Mus musculus; experiment: Reversal of MK-801 induced deficits in male C57BL/6JRj mouse model assessed as 40 Hz ASSR in prefrontal cortex at 4 to 10 mg/kg, sc measured after 15 mins; assay type: functional, organism-based; details: dose 4-10 mg/kg
[25] = Toxicity in male Wistar rat assessed as reduction in alpha power at 10 mg/kg, po measured at 60 to 240 mins post treatment by EEG analysis; assay type: organism-based; details: in vivo, time 60-240 min
[26] = Drug metabolism in human liver microsomes assessed as furanyl ring opening incubated for 60 mins; assay type: ADME, Microsome; details: 1 h
[27] = Toxicity in male Sprague-Dawley rat assessed as catalepsy at 1 to 10 mg/kg, po measured after 60 mins; assay type: organism-based; details: in vivo, 1 h, dose 1-10 mg/kg
[28] = molecular target: Metabotropic glutamate receptor 2 (Rattus norvegicus, UniProt P31421); experiment: Positive allosteric modulation of rat mGlu2 receptor
[29] = Drug metabolism in human liver microsomes assessed as furanyl ring oxidation incubated for 60 mins; assay type: ADME, Microsome; details: 1 h
[30] = molecular target: T1, Metabotropic glutamate receptor 1; experiment: Agonist activity at mGlu1 receptor (unknown origin) upto 30 uM; assay type: functional
Target sequence in this assay (Q13255 19-1194 limits assumed): as above

[31] = Mutagenicity in Salmonella typhimurium by Ames test; assay type: toxicity; details: salmonella enterica subsp. enterica serovar typhimurium
[32] = molecular target: T1, Metabotropic glutamate receptor 1; experiment: Antagonist activity at mGlu1 receptor (unknown origin) assessed as desensitization of receptor at EC80 concentration; details: filed as antagonist
Target sequence in this assay (Q13255 19-1194 limits assumed): as above

[33] = Unbound brain concentration in amphetamine-induced hyperlocomotion male Sprague-Dawley rat model at 10 mg/kg, po measured after 6.5 hrs; assay type: ADME, organism-based; details: in vivo
[34] = molecular target: Metabotropic glutamate receptor 7 (Rattus norvegicus, UniProt P35400); experiment: Positive allosteric modulation of rat mGlu7 receptor
[35] = molecular target: Metabotropic glutamate receptor 3 (Homo sapiens, UniProt Q14832); experiment: Positive allosteric modulation of human mGlu3 receptor
[36] = test system: Mus musculus; experiment: Reversal of MK-801 induced deficits in male C57BL/6JRj mouse model assessed as 40 Hz ASSR in prefrontal cortex at 0.8 mg/kg, sc measured after 15 mins; assay type: functional, organism-based
[37] = Unbound initial plasma concentration in male dog at 0.5 mg/kg, iv; assay type: ADME, organism-based, Canis lupus familiaris; details: in vivo
[38] = test system: Mus musculus; experiment: Reversal of MK-801 induced N1 sensory gating deficit in male C57BL/6JRj mouse model assessed as improvement in cognitive deficits at 10 mg/kg, sc; assay type: functional, organism-based
[39] = Toxicity in male Wistar rat assessed as increase in motor activity at 10 mg/kg, po measured at 120 mins post treatment by EEG analysis; assay type: organism-based; details: in vivo, 2 h
[40] = Cmax in amphetamine-induced male Sprague-Dawley rat model at 60 mg/kg and measured at 3.33 hrs post administration; assay type: ADME, organism-based; details: in vivo
[41] = molecular target: Metabotropic glutamate receptor 5 (Homo sapiens, UniProt P41594); experiment: Positive allosteric modulation of human mGlu5 receptor
Sequence of Metabotropic glutamate receptor 5 (Homo sapiens, UniProt P41594) (P41594 whole entry): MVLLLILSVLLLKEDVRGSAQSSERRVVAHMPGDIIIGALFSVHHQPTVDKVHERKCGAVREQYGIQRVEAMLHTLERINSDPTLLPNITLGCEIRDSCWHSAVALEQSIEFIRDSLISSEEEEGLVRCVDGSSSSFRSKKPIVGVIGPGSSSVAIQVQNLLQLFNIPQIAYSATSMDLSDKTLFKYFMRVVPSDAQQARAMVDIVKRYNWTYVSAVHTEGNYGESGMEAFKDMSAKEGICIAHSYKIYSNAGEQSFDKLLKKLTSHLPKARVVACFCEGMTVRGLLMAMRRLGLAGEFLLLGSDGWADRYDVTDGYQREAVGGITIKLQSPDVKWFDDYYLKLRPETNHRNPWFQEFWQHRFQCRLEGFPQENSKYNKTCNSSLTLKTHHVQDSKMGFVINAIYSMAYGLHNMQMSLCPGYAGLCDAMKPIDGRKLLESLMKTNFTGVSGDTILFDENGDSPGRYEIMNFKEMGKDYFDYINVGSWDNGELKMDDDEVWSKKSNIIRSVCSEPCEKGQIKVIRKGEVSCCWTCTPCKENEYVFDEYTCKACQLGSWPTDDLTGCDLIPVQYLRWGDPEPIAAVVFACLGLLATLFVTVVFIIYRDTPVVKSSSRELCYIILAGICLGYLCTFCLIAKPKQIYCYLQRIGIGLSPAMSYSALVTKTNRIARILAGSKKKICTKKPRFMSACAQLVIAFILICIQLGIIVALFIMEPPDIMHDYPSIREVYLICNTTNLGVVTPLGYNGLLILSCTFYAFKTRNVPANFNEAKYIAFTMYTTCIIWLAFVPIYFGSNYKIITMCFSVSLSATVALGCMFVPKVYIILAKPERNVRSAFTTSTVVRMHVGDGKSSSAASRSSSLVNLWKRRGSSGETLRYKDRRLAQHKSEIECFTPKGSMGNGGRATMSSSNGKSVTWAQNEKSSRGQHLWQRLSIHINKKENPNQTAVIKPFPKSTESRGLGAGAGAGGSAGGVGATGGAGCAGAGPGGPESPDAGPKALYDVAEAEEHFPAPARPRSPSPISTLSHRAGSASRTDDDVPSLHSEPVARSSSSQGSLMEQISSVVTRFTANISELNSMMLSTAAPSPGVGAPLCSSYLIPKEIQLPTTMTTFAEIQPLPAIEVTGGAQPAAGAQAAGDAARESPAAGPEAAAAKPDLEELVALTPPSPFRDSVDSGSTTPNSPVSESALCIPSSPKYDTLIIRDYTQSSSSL

[42] = Drug metabolism in rat liver microsomes assessed as furanyl ring opening incubated for 60 mins; assay type: ADME, Microsome; details: 1 h
[43] = Drug metabolism in rat liver microsomes assessed as furanyl ring oxidation incubated for 60 mins; assay type: ADME, Microsome; details: 1 h
[44] = Glutathione reactivity in human liver microsomes incubated for 1 hr in presence of glutathione; assay type: ADME, Microsome
[45] = Unbound brain concentration in amphetamine-induced hyperlocomotion male Sprague-Dawley rat model at 3 mg/kg, po; assay type: ADME, organism-based; details: in vivo
[46] = Toxicity in male Wistar rat assessed as improvement in sleep-wake profile by measuring quiet wake state at 10 mg/kg, po measured at 120 mins post treatment by EEG analysis; assay type: organism-based; details: in vivo, 2 h
[47] = Toxicity in male Wistar rat assessed as reduction in delta power at 10 mg/kg, po measured at 60 to 240 mins post treatment by EEG analysis; assay type: organism-based; details: in vivo, time 60-240 min
[48] = Antagonist activity at peripheral Benzodiazepine receptor (unknown origin); parameters: species or system Homo sapiens
[49] = Stability of compound at pH 7.4; assay type: physicochemical; details: buffer
[50] = Toxicity in male Wistar rat assessed as change in body temperature at 10 mg/kg, po measured at 120 mins post treatment by EEG analysis; assay type: organism-based; details: in vivo, 2 h
[51] = test system: Rattus norvegicus; experiment: Antipsychotic efficacy against amphetamine-induced hyperlocomotion in male Sprague-Dawley rat assessed as reversal of hyperlocomotive state administered orally pretreated with compound followed by amphetamine addition and measured after 90 mins; assay type: functional, organism-based; details: dose 1-10 mg/kg, route po
[52] = molecular target: Metabotropic glutamate receptor 7 (Homo sapiens, UniProt Q14831); experiment: Positive allosteric modulation of human mGlu7 receptor
[53] = Toxicity in male Wistar rat assessed as improvement in sleep-wake profile by measuring active wake state at 10 mg/kg, po measured at 120 mins post treatment by EEG analysis; assay type: organism-based; details: in vivo, 2 h
[54] = Unbound brain concentration in amphetamine-induced hyperlocomotion male Sprague-Dawley rat model at 3 mg/kg, po pretreated for 2.5 hrs; assay type: ADME, organism-based; details: in vivo
[55] = molecular target: Metabotropic glutamate receptor 2 (Homo sapiens, UniProt Q14416); experiment: Positive allosteric modulation of human mGlu2 receptor
[56] = molecular target: Metabotropic glutamate receptor 5 (Rattus norvegicus, UniProt P31424); experiment: Positive allosteric modulation of rat mGlu5 receptor
Sequence of Metabotropic glutamate receptor 5 (Rattus norvegicus, UniProt P31424) (P31424 whole entry): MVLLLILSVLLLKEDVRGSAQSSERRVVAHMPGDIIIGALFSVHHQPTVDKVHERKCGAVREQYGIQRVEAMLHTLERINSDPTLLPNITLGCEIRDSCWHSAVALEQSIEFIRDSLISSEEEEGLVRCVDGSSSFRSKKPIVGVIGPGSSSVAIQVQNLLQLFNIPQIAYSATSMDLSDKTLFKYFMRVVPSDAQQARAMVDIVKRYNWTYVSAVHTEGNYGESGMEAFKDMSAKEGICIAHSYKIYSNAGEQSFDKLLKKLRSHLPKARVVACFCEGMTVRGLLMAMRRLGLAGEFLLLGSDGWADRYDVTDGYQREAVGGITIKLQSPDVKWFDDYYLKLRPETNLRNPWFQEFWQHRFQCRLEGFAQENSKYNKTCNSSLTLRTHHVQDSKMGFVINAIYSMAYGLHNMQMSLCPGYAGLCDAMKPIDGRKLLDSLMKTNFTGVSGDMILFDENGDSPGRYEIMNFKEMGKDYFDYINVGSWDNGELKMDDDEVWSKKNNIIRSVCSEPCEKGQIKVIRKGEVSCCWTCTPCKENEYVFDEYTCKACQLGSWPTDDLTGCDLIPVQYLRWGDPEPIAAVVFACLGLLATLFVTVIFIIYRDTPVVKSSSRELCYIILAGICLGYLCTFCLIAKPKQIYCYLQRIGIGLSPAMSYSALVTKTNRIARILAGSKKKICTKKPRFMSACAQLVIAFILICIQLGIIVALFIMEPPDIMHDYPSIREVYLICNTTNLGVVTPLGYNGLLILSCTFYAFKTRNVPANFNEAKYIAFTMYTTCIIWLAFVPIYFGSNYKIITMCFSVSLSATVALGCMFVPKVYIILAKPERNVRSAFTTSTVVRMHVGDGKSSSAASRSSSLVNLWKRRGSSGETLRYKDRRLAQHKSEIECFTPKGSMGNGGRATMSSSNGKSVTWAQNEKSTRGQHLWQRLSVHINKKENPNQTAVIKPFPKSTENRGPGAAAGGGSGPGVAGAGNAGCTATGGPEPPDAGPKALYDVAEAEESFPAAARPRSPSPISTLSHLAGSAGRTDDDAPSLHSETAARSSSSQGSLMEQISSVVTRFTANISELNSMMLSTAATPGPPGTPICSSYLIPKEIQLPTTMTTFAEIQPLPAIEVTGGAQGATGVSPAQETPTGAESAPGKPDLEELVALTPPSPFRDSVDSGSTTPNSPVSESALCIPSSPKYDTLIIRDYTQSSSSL

Cc1ccc2c(c1)C(=O)N(c1ccc(NC(=O)c3occc3C)c(F)c1)C2=O
C0(unbound) [1]: 36.4 nM
EC50 [2]: 0.013 µM
concentration [3]: 1100 nM

O=C(CCCN1CCC(O)(c2ccc(Cl)cc2)CC1)c1ccc(F)cc1 [HALOPERIDOL]
Activity [4]: Toxic

Cn1nc(-c2ccnn2C)cc1CNC(=O)c1cc(-c2ccco2)ccc1Cl
EC50 [5]: > 30 µM
Activity [6]: Active
Activity [7]: Non-toxic
Activity [8]: 25.1%
Activity [9]: Non-toxic
EC50 [10]: > 30 µM
Activity [11]: Dose-dependent-effect
Drug uptake(free) [12]: 100 nM
EC50 [13]: > 30 µM
Activity [14]: Non-toxic
Drug metabolism [15]: metabolite_detected
EC50 [16]: > 30 µM
Activity [17]: Active
Drug uptake(free) [18]: 40 nM
Activity [19]: Dose-dependent-effect
Activity [20]: 27.3%
Stability [21]: Stable
EC50 [22]: > 30 µM
Drug uptake(free) [23]: 44 nM
Activity [24]: Active
Activity [25]: Non-toxic
Drug metabolism [26]: metabolite_notdetected
Activity [27]: Non-toxic
EC50 [28]: > 30 µM
Drug metabolism [29]: metabolite_notdetected
Activity [30]: inactive
Activity [31]: Non-toxic
Activity [32]: Active; Slight Desensitization Was Observed
Drug uptake(free) [33]: 44 nM
EC50 [34]: > 30 µM
EC50 [35]: > 30 µM
Activity [36]: inactive
C0(unbound) [37]: 80 nM
Activity [38]: Active
Activity [39]: Non-toxic
Cmax [40]: 313 nM
EC50 [41]: > 30 µM
Drug metabolism [42]: metabolite_notdetected
Drug metabolism [43]: metabolite_notdetected
Drug metabolism [44]: metabolite_detected
Drug uptake(free) [45]: 40 nM
Activity [46]: Non-toxic
Activity [47]: Non-toxic
IC50 [48]: 0.207 µM
Stability [49]: Stable
Activity [50]: Non-toxic
Activity [51]: Dose-dependent-effect
EC50 [52]: > 30 µM
Activity [53]: Non-toxic
Drug uptake(free) [54]: 32 nM
EC50 [55]: > 30 µM
EC50 [56]: > 30 µM
